Experimental data reported in the supplement of paper PMC10307832.

Assays:
Assay in all cases: relative viability (nuclei count vs DMSO), 5 days (fraction); higher = more cells survive
A-427 = test system: A-427
Method in brief: (§1)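 Lung cancer cell lines were seeded in 1536-well plates and dosed by pin tool the next day, with either a single drug or a fixed anchor-drug dose combined with five library-drug doses (not always all listed) spaced in √10 steps. Five days later, one step fixed the cells and stained their nuclei (final 0.05% Triton X-100, 1% formaldehyde, 1 ug/ml Hoechst), and nuclei were counted on 4× images. Relative viability is the nuclei count in treated wells divided by the count in vehicle wells, and each value is the median of duplicate plates.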

A549 = test system: A549
Method in brief: as §1

CAL-12T = test system: CAL-12T
Method in brief: as §1

Calu-6 = test system: Calu-6
Method in brief: as §1

EBC-1 = test system: EBC-1
Method in brief: as §1

IA-LM = test system: IA-LM
Method in brief: as §1

LK-2 = test system: LK-2
Method in brief: as §1

NCI-H1299 = test system: NCI-H1299
Method in brief: as §1

NCI-H1648 = test system: NCI-H1648
Method in brief: as §1

NCI-H1650 = test system: NCI-H1650
Method in brief: as §1

NCI-H1703 = test system: NCI-H1703
Method in brief: as §1

NCI-H1734 = test system: NCI-H1734
Method in brief: as §1

NCI-H2009 = test system: NCI-H2009
Method in brief: as §1

UMC-11 = test system: UMC-11
Method in brief: as §1

O=c1cc(N2CCOCC2)oc2c(-c3cccc4c3sc3ccccc34)cccc12 + O=C(c1cc(Cc2n[nH]c(=O)c3ccccc23)ccc1F)N1CCN(C(=O)C2CC2)CC1 [Olaparib] (partner 8 µM)
relative viability (A-427; first compound 0.01 µM): 0.742 | relative viability (A-427; first compound 0.03162 µM): 0.706 | relative viability (A-427; first compound 0.1 µM): 0.737 | relative viability (A-427; first compound 0.3162 µM): 0.731 | relative viability (A-427; first compound 1 µM): 0.733 | relative viability (A549; first compound 0.01 µM): 0.429 | relative viability (A549; first compound 0.03162 µM): 0.31 | relative viability (A549; first compound 0.1 µM): 0.295 | relative viability (A549; first compound 0.3162 µM): 0.356 | relative viability (A549; first compound 1 µM): 0.268 | relative viability (CAL-12T; first compound 0.01 µM): 0.682 | relative viability (CAL-12T; first compound 0.03162 µM): 0.707 | relative viability (CAL-12T; first compound 0.1 µM): 0.75 | relative viability (CAL-12T; first compound 0.3162 µM): 0.693 | relative viability (CAL-12T; first compound 1 µM): 0.744 | relative viability (Calu-6; first compound 0.01 µM): 0.614 | relative viability (Calu-6; first compound 0.03162 µM): 0.606 | relative viability (Calu-6; first compound 0.1 µM): 0.602 | relative viability (Calu-6; first compound 0.3162 µM): 0.484 | relative viability (Calu-6; first compound 1 µM): 0.657 | relative viability (EBC-1; first compound 0.01 µM): 0.709 | relative viability (EBC-1; first compound 0.03162 µM): 0.667 | relative viability (EBC-1; first compound 0.1 µM): 0.757 | relative viability (EBC-1; first compound 0.3162 µM): 0.788 | relative viability (EBC-1; first compound 1 µM): 0.624 | relative viability (IA-LM; first compound 0.01 µM): 0.883 | relative viability (IA-LM; first compound 0.03162 µM): 0.941 | relative viability (IA-LM; first compound 0.1 µM): 0.766 | relative viability (IA-LM; first compound 0.3162 µM): 0.793 | relative viability (IA-LM; first compound 1 µM): 0.769 | relative viability (LK-2; first compound 0.01 µM): 0.802 | relative viability (LK-2; first compound 0.03162 µM): 0.554 | relative viability (LK-2; first compound 0.1 µM): 0.847 | relative viability (LK-2; first compound 0.3162 µM): 0.722 | relative viability (LK-2; first compound 1 µM): 0.737 | relative viability (NCI-H1299; first compound 0.01 µM): 0.961 | relative viability (NCI-H1299; first compound 0.03162 µM): 0.946 | relative viability (NCI-H1299; first compound 0.1 µM): 0.985 | relative viability (NCI-H1299; first compound 0.3162 µM): 0.974 | relative viability (NCI-H1299; first compound 1 µM): 0.917 | relative viability (NCI-H1648; first compound 0.03162 µM): 0.787 | relative viability (NCI-H1648; first compound 0.1 µM): 1.28 | relative viability (NCI-H1648; first compound 0.3162 µM): 0.936 | relative viability (NCI-H1648; first compound 1 µM): 1.17 | relative viability (NCI-H1650; first compound 0.01 µM): 0.667 | relative viability (NCI-H1650; first compound 0.03162 µM): 0.752 | relative viability (NCI-H1650; first compound 0.1 µM): 0.94 | relative viability (NCI-H1650; first compound 0.3162 µM): 0.739 | relative viability (NCI-H1650; first compound 1 µM): 0.624 | relative viability (NCI-H1703; first compound 0.01 µM): 0.548 | relative viability (NCI-H1703; first compound 0.03162 µM): 0.274 | relative viability (NCI-H1703; first compound 0.1 µM): 0.411 | relative viability (NCI-H1703; first compound 0.3162 µM): 0.446 | relative viability (NCI-H1703; first compound 1 µM): 0.511 | relative viability (NCI-H1734; first compound 0.01 µM): 0.686 | relative viability (NCI-H1734; first compound 0.03162 µM): 0.638 | relative viability (NCI-H1734; first compound 0.1 µM): 0.685 | relative viability (NCI-H1734; first compound 0.3162 µM): 0.638 | relative viability (NCI-H1734; first compound 1 µM): 0.652 | relative viability (NCI-H2009; first compound 0.01 µM): 0.718 | relative viability (NCI-H2009; first compound 0.03162 µM): 0.651 | relative viability (NCI-H2009; first compound 0.1 µM): 0.592 | relative viability (NCI-H2009; first compound 0.3162 µM): 0.652 | relative viability (NCI-H2009; first compound 1 µM): 0.673 | relative viability (UMC-11; first compound 0.01 µM): 0.359 | relative viability (UMC-11; first compound 0.03162 µM): 0.432 | relative viability (UMC-11; first compound 0.1 µM): 0.895 | relative viability (UMC-11; first compound 0.3162 µM): 0.699 | relative viability (UMC-11; first compound 1 µM): 0.404

O=c1cc(-c2cccc3c2Sc2ccccc2S3)oc(N2CCOCC2)c1 + O=C(CCCCCCC(=O)Nc1ccccc1)NO [Vorinostat] (partner 1 µM)
relative viability (A-427; first compound 0.08 µM): 0.863 | relative viability (A-427; first compound 0.253 µM): 0.931 | relative viability (A-427; first compound 0.8 µM): 0.897 | relative viability (A-427; first compound 2.53 µM): 0.834 | relative viability (A-427; first compound 8 µM): 0.829 | relative viability (CAL-12T; first compound 0.08 µM): 0.677 | relative viability (CAL-12T; first compound 0.253 µM): 0.782 | relative viability (CAL-12T; first compound 0.8 µM): 0.765 | relative viability (CAL-12T; first compound 2.53 µM): 0.799 | relative viability (CAL-12T; first compound 8 µM): 0.699 | relative viability (IA-LM; first compound 0.253 µM): 1.31 | relative viability (IA-LM; first compound 0.8 µM): 0.966 | relative viability (IA-LM; first compound 2.53 µM): 0.863 | relative viability (IA-LM; first compound 8 µM): 1.08 | relative viability (LK-2; first compound 0.08 µM): 0.261 | relative viability (LK-2; first compound 0.253 µM): 0.327 | relative viability (LK-2; first compound 0.8 µM): 0.369 | relative viability (LK-2; first compound 2.53 µM): 0.287 | relative viability (LK-2; first compound 8 µM): 0.358 | relative viability (NCI-H1648; first compound 0.253 µM): 0.468 | relative viability (NCI-H1648; first compound 0.8 µM): 0.65 | relative viability (NCI-H1648; first compound 8 µM): 0.457 | relative viability (NCI-H1650; first compound 0.08 µM): 0.535 | relative viability (NCI-H1650; first compound 0.253 µM): 0.643 | relative viability (NCI-H1650; first compound 0.8 µM): 0.602 | relative viability (NCI-H1650; first compound 2.53 µM): 0.502 | relative viability (NCI-H1650; first compound 8 µM): 0.556 | relative viability (NCI-H1734; first compound 0.08 µM): 0.771 | relative viability (NCI-H1734; first compound 0.253 µM): 0.94 | relative viability (NCI-H1734; first compound 0.8 µM): 0.824 | relative viability (NCI-H1734; first compound 8 µM): 0.993 | relative viability (NCI-H2009; first compound 0.08 µM): 0.761 | relative viability (NCI-H2009; first compound 0.253 µM): 0.751 | relative viability (NCI-H2009; first compound 0.8 µM): 0.667 | relative viability (NCI-H2009; first compound 2.53 µM): 0.684 | relative viability (NCI-H2009; first compound 8 µM): 0.699 | relative viability (UMC-11; first compound 0.08 µM): 0.312 | relative viability (UMC-11; first compound 0.253 µM): 0.454 | relative viability (UMC-11; first compound 0.8 µM): 0.362 | relative viability (UMC-11; first compound 2.53 µM): 0.394 | relative viability (UMC-11; first compound 8 µM): 0.336
